The source of these data is ChEMBL document CHEMBL3132769, “Fragment growing to retain or alter the selectivity of anchored kinase hinge-binding fragments” (Medchemcomm, 2014).

For experiment [1], the target named is Dual specificity tyrosine-phosphorylation-regulated kinase 1A (Rattus norvegicus) (UniProt Q63470). The experiment can be described thus: Inhibition of rat full length DYRK1a expressed in Escherichia coli cell assessed as substrate phosphorylation using fluorescence-labelled peptides as substrate at 0.2 uM after 90 mins by microfluidic peptide phosphorylation assay.

For experiment [2], the target named is Calcium/calmodulin-dependent protein kinase type II subunit gamma (Homo sapiens) (UniProt Q13555). The experiment can be described thus: Inhibition of human CAMK2 gamma catalytic domain expressed in baculovirus assessed as substrate phosphorylation using fluorescence-labelled peptides as substrate at 0.2 uM after 90 mins by microfluidic peptide phosphorylation assay.

The target of experiment [3] is Calcium/calmodulin-dependent protein kinase type II subunit beta (Homo sapiens) (UniProt Q13554). The following applies: 0.1 uM.
Description: Inhibition of human CAMK2 beta catalytic domain expressed in baculovirus assessed as substrate phosphorylation using fluorescence-labelled peptides as substrate at 0.1 uM after 90 mins by microfluidic peptide phosphorylation assay
Experiment [4] deals with Mitogen-activated protein kinase 3 (Homo sapiens) (UniProt P27361). Description: Inhibition of human full length ERK1 expressed in Escherichia coli cell assessed as substrate phosphorylation using fluorescence-labelled peptides as substrate at 0.1 uM after 90 mins by microfluidic peptide phosphorylation assay.
For experiment [5], the system named is Tyrosine-protein kinase ABL1 (Homo sapiens), P00519 [T315I]. Particulars: 0.1 uM.
Experiment [6] has the same test system. Description: Inhibition of human truncated ABL T315I mutant expressed in baculovirus assessed as substrate phosphorylation using fluorescence-labelled peptides as substrate at 95 uM after 90 mins by microfluidic peptide phosphorylation assay.
Experiment [7] concerns the target Fibroblast growth factor receptor 3 (Homo sapiens) (UniProt P22607). The experiment can be described thus: Inhibition of human FGFR3 catalytic domain expressed in baculovirus assessed as substrate phosphorylation using fluorescence-labelled peptides as substrate at 95 uM after 90 mins by microfluidic peptide phosphorylation assay.
Experiment [8] addresses Aurora kinase B (Homo sapiens) (UniProt Q96GD4). Description: Inhibition of human full length AurB expressed in baculovirus assessed as substrate phosphorylation using fluorescence-labelled peptides as substrate at 95 uM after 90 mins by microfluidic peptide phosphorylation assay.
In experiment [9] the target is RAC-alpha serine/threonine-protein kinase (Homo sapiens) (UniProt P31749). The experiment can be described thus: Inhibition of human AKT1 catalytic domain expressed in baculovirus assessed as substrate phosphorylation using fluorescence-labelled peptides as substrate at 9 uM after 90 mins by microfluidic peptide phosphorylation assay.
For experiment [10], the target named is Platelet-derived growth factor receptor alpha (Homo sapiens) (UniProt P16234). The experiment can be described thus: Inhibition of human PDGFR alpha catalytic domain expressed in baculovirus assessed as substrate phosphorylation using fluorescence-labelled peptides as substrate at 8 uM after 90 mins by microfluidic peptide phosphorylation assay.
In experiment [11] the target is Mitogen-activated protein kinase 14 (Homo sapiens) (UniProt Q16539). The experiment can be described thus: Inhibition of human truncated p38 alpha expressed in Escherichia coli cell assessed as substrate phosphorylation using fluorescence-labelled peptides as substrate at 8 uM after 90 mins by microfluidic peptide phosphorylation assay.
Experiment [12] deals with Serine/threonine-protein kinase PAK 2 (Homo sapiens) (UniProt Q13177). Description: Inhibition of human truncated PAK2 expressed in Escherichia coli cell assessed as substrate phosphorylation using fluorescence-labelled peptides as substrate at 8 uM after 90 mins by microfluidic peptide phosphorylation assay.
Experiment [13] concerns the target Tyrosine-protein kinase ABL2 (Homo sapiens) (UniProt P42684). Description: Inhibition of human truncated Arg expressed in baculovirus assessed as substrate phosphorylation using fluorescence-labelled peptides as substrate at 8 uM after 90 mins by microfluidic peptide phosphorylation assay.
Experiment [14] concerns the target Protein kinase C eta type (Homo sapiens) (UniProt P24723). Description: Inhibition of human truncated PKC eta expressed in baculovirus assessed as substrate phosphorylation using fluorescence-labelled peptides as substrate at 8 uM after 90 mins by microfluidic peptide phosphorylation assay.
For experiment [15], the target named is Mitogen-activated protein kinase kinase kinase kinase 4 (Homo sapiens) (UniProt O95819). Description: Inhibition of human HGK catalytic domain expressed in baculovirus assessed as substrate phosphorylation using fluorescence-labelled peptides as substrate at […] after 90 mins by microfluidic peptide phosphorylation assay.
The target of experiment [16] is Vascular endothelial growth factor receptor 2 (Homo sapiens) (UniProt P35968). The experiment can be described thus: Inhibition of human KDR cytoplasmic domain expressed in baculovirus assessed as substrate phosphorylation using fluorescence-labelled peptides as substrate at 1000 uM after 90 mins by microfluidic peptide phosphorylation assay.
The test system of experiment [17] is Tyrosine-protein kinase ABL1 (Homo sapiens), P00519 [Q252H]. The experiment can be described thus: Inhibition of human truncated ABL Q252H mutant expressed in baculovirus assessed as substrate phosphorylation using fluorescence-labelled peptides as substrate at 1000 uM after 90 mins by microfluidic peptide phosphorylation assay.
For experiment [18], the target named is Fibroblast growth factor receptor 3 (Homo sapiens) (UniProt P22607). Description: Inhibition of human FGFR3 catalytic domain expressed in baculovirus assessed as substrate phosphorylation using fluorescence-labelled peptides as substrate at 0.06 uM after 90 mins by microfluidic peptide phosphorylation assay.
Experiment [19] has as its target Fibroblast growth factor receptor 4 (Homo sapiens) (UniProt P22455). Description: Inhibition of human FGFR4 catalytic domain expressed in baculovirus assessed as substrate phosphorylation using fluorescence-labelled peptides as substrate at 0.06 uM after 90 mins by microfluidic peptide phosphorylation assay.
The target in experiment [20] is Aurora kinase B (Homo sapiens) (UniProt Q96GD4). Description: Inhibition of human full length AurB expressed in baculovirus assessed as substrate phosphorylation using fluorescence-labelled peptides as substrate at 0.06 uM after 90 mins by microfluidic peptide phosphorylation assay.
Experiment [21] addresses Casein kinase I isoform alpha (Homo sapiens) (UniProt P48729). Description: Inhibition of human full length CSNK1A1 expressed in baculovirus assessed as substrate phosphorylation using fluorescence-labelled peptides as substrate at 0.06 uM after 90 mins by microfluidic peptide phosphorylation assay.
In experiment [22] the target is Calcium/calmodulin-dependent protein kinase type II subunit beta (Homo sapiens) (UniProt Q13554). Description: Inhibition of human CAMK2 beta catalytic domain expressed in baculovirus assessed as substrate phosphorylation using fluorescence-labelled peptides as substrate at 2 uM after 90 mins by microfluidic peptide phosphorylation assay.
The test system of experiment [23] is Tyrosine-protein kinase ABL1 (Homo sapiens), P00519 [T315I]. Description: Inhibition of human truncated ABL T315I mutant expressed in baculovirus assessed as substrate phosphorylation using fluorescence-labelled peptides as substrate at 2 uM after 90 mins by microfluidic peptide phosphorylation assay.
Experiment [24] concerns the target Aurora kinase B (Homo sapiens) (UniProt Q96GD4). The experiment can be described thus: Inhibition of human full length AurB expressed in baculovirus assessed as substrate phosphorylation using fluorescence-labelled peptides as substrate at 70 uM after 90 mins by microfluidic peptide phosphorylation assay.

In general, inhibition refers to the change of the read-out against control, counted positive when it falls.

Aurora kinase B (Homo sapiens), sequence (Q96GD4 whole entry, the tested form may be a part, canonical isoform): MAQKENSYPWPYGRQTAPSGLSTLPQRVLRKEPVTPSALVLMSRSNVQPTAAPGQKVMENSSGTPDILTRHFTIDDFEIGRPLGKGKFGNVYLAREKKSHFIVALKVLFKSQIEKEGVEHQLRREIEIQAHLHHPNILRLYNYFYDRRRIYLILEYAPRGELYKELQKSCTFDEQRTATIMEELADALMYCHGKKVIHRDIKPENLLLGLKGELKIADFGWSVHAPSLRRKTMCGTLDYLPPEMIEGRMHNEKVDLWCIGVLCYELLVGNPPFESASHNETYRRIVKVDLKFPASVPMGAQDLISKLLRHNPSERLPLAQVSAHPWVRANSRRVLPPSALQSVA
Fibroblast growth factor receptor 3 (Homo sapiens), sequence (P22607 23-806 limits assumed): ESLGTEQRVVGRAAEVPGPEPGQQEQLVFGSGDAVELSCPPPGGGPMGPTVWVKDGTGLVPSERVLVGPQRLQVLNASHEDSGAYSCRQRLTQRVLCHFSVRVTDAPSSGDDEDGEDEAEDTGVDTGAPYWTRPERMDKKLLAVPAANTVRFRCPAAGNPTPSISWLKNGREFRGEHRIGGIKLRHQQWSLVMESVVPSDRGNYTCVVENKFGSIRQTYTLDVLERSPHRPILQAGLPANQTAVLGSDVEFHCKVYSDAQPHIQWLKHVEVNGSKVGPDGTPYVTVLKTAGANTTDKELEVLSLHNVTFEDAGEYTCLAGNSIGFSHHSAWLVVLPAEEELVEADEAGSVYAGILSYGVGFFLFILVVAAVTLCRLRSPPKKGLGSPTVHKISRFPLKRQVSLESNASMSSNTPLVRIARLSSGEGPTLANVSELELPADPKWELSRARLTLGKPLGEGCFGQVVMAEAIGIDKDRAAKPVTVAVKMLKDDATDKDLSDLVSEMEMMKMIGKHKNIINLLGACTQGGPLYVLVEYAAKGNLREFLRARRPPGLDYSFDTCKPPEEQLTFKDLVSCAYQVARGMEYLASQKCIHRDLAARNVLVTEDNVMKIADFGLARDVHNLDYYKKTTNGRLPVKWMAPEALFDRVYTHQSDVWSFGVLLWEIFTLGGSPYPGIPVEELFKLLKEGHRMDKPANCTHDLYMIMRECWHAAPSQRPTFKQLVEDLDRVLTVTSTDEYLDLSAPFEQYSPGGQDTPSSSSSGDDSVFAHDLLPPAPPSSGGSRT
Calcium/calmodulin-dependent protein kinase type II subunit beta (Homo sapiens), sequence (Q13554 whole entry, the tested form may be a part): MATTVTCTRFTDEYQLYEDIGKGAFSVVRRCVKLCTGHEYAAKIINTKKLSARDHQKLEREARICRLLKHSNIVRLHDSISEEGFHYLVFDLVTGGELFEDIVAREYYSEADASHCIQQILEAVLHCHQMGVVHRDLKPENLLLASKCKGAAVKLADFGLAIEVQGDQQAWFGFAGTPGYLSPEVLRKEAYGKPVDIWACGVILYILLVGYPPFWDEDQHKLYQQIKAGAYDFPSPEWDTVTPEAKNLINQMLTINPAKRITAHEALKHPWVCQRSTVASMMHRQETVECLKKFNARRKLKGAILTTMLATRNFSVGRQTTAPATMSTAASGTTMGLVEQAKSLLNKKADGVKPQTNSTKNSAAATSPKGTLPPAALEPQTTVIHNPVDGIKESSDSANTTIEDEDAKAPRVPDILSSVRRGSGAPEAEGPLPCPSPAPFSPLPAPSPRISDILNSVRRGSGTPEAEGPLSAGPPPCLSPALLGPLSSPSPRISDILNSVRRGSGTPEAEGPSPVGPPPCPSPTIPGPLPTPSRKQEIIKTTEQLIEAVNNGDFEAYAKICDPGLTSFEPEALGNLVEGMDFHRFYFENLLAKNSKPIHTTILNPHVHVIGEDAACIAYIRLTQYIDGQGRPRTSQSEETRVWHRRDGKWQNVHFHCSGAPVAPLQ
RAC-alpha serine/threonine-protein kinase (Homo sapiens), sequence (P31749 whole entry, the tested form may be a part): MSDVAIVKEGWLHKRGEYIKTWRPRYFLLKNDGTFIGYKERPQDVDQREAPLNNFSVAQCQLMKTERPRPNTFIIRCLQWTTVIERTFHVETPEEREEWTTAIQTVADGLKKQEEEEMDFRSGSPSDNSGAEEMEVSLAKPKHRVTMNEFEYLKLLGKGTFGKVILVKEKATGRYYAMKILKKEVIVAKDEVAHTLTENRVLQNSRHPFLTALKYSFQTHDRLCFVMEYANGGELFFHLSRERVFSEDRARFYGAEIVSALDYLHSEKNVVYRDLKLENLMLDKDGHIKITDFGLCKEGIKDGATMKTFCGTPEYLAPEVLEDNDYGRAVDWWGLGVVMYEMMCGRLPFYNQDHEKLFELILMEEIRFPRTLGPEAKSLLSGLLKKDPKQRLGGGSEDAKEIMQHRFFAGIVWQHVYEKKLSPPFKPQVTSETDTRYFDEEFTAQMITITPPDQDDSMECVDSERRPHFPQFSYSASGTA
Casein kinase I isoform alpha (Homo sapiens), sequence (P48729 2-337 limits assumed): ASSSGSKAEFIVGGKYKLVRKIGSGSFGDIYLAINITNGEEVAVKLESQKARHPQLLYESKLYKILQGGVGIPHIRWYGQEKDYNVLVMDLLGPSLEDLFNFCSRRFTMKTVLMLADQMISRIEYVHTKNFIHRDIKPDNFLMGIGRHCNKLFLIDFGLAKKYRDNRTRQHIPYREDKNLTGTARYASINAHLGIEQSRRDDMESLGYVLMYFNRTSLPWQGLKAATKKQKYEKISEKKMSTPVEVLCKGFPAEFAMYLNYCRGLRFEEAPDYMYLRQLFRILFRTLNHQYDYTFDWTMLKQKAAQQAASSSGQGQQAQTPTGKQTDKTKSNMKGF
Mitogen-activated protein kinase 14 (Homo sapiens), sequence (Q16539 whole entry, the tested form may be a part): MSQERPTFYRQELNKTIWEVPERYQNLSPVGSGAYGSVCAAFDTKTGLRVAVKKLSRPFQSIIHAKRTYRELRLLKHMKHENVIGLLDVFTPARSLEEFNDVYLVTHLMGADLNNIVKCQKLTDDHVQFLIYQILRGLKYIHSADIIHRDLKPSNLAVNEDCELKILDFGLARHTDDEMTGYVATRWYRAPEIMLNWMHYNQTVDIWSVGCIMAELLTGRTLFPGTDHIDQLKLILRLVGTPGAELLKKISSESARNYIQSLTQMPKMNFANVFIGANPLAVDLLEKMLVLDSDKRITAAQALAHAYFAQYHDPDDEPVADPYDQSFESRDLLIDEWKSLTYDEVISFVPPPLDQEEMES
Mitogen-activated protein kinase 3 (Homo sapiens), sequence (P27361 whole entry): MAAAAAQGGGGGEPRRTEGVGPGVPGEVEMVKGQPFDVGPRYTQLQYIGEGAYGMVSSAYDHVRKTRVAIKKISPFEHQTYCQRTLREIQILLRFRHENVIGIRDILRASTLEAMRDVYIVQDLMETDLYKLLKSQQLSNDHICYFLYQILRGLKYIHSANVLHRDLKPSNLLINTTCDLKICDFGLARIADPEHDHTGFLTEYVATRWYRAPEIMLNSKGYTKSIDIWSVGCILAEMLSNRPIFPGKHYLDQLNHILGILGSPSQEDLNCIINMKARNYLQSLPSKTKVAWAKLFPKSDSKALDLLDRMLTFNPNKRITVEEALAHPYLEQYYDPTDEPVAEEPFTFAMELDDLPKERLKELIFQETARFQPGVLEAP
Serine/threonine-protein kinase PAK 2 (Homo sapiens), sequence (Q13177 whole entry, the tested form may be a part): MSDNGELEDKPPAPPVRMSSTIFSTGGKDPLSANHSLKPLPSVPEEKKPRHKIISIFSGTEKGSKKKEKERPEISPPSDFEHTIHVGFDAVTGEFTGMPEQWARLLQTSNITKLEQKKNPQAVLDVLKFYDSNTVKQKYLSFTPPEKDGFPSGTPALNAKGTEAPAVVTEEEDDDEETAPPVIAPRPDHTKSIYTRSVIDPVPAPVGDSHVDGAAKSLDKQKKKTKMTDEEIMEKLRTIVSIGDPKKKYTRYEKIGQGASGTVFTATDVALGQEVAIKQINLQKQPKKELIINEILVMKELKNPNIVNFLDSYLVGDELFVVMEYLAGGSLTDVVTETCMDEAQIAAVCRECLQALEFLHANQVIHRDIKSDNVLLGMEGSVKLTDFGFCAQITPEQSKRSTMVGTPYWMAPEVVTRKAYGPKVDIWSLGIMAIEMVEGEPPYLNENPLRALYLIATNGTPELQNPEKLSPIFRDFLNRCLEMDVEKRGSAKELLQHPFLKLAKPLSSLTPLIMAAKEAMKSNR
Calcium/calmodulin-dependent protein kinase type II subunit gamma (Homo sapiens), sequence (Q13555 whole entry, the tested form may be a part): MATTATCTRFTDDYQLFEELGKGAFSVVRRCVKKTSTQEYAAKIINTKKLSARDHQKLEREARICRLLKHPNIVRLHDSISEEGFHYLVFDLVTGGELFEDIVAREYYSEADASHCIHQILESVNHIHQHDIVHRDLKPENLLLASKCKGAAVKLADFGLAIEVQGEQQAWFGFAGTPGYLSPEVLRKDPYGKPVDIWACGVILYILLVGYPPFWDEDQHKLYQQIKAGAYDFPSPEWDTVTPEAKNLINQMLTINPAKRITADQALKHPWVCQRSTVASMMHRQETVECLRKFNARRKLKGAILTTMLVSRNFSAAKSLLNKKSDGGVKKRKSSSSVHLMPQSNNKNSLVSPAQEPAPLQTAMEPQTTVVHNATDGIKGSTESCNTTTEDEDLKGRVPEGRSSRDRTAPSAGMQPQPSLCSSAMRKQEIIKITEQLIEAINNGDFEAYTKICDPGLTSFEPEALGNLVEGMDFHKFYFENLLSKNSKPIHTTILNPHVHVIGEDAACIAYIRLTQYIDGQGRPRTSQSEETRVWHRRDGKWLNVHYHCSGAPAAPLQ

On to `Clc1ccc(C2(c3ccc(-c4ncnc5[nH]cnc45)cc3)CCNCC2)cc1`, for which the results for the inhibition in experiment [1] and in experiment [2] were 11% and 15%, respectively.

Consider `C[C@H](CN(C)C)Oc1nc(Nc2cc3cccc(Cl)c3cn2)cnc1C#N`, for which the inhibition amounted to 0% in experiment [3], 1% in experiment [4] and 0% in experiment [5].

With `NCCc1ccc(-c2ncnc3[nH]cnc23)cc1`, the inhibition worked out at 53% in experiment [6], 27% in [7] and 97% in [8].

Regarding `NCC1CN(c2ncnc3[nH]c4cnccc4c23)CCO1` (centres undefined), the inhibition in experiment [9] worked out at 52%.

Regarding `NCC1CCN(c2ncnc3[nH]ccc23)CC1`, the inhibition in experiment [10] was 0%; in [11], 7%; in [12], 24.5%; in [13], 3.5%; in [14], 82%.

With `COC(=O)c1cnc(Nc2cnc(C#N)cn2)cc1NCC1CCNCC1`, in [15], the inhibition is 3%.

As to `c1cnc2[nH]ccc2c1`, the inhibition in [16] stood at 89.5%; in experiment [17] it was 29%.

As for `NC1(Cc2ccc(Cl)cc2)CCN(c2ncnc3[nH]ccc23)CC1`, the inhibition in experiment [18] was determined as 0%; in experiment [19] it was 2%; in [20], 0%; in experiment [21] it was 1%.

Regarding `NC1CCN(c2ncnc3[nH]ccc23)CC1`, the inhibition in experiment [22] is 25.5%; in experiment [23], 1%.

For the compound `CNCc1ccc(-c2ncnc3[nH]cnc23)cc1`, the inhibition in experiment [24] is 85%.
